The results in this text go back to PubChem BioAssay (NCI).

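Grown in 96-well plates, cells were treated for 48 hours with each compound at five concentrations. Insufficient inhibition: endpoint recorded as highest concentration tested. GI50: concentration for 50% inhibition of growth. TGI: concentration producing complete growth inhibition.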 Some results are limits rather than exact numbers.

Among the test systems are SNB-75 CNS; DU-145 prostate; NCI-H226 lung; SN12C renal; HCT-116 colon; SF-268 CNS; TK-10 renal; MCF7 breast; OVCAR-4 ovarian; T-47D breast.
Common to all, as to assay: NCI anticancer screen, dose series, 48 h

On to `CC1C(C)N(C(=O)CCl)c2ccccc2N1C(=O)CCl` (stereo not given), for which the GI50 is 1.36 µM with SNB-75 CNS; 0.472 µM in the experiment on DU-145 prostate; 1.11 µM in the experiment on NCI-H226 lung; 0.793 µM in the experiment with SN12C renal; 0.185 µM in the experiment on HCT-116 colon; 0.582 µM in the experiment with SF-268 CNS. The GI50 was 0.78 µM with TK-10 renal, 0.318 µM in the experiment with MCF7 breast, 0.499 µM in the experiment with OVCAR-4 ovarian and 0.843 µM in the experiment on T-47D breast. Moreover, the TGI came to 2.84 µM in the experiment with SNB-75 CNS; 1.8 µM with DU-145 prostate; 3.52 µM with NCI-H226 lung; 3.05 µM in the experiment with SN12C renal; 0.406 µM with HCT-116 colon; 2.11 µM in the experiment with SF-268 CNS. Further, the TGI turned out to be 2.04 µM in the experiment with TK-10 renal, 1.6 µM in the experiment on MCF7 breast, 1.73 µM in the experiment on OVCAR-4 ovarian and 2.67 µM in the experiment with T-47D breast.

`COc1ccc2c(c1OC)CO[C@@H]2[C@H]1c2c(cc3c(c2OC)OCO3)CCN1S(=O)(=O)c1cn(C)cn1`: the GI50 in the experiment on SNB-75 CNS is 1.6 µM; in the experiment with DU-145 prostate, 2.77 µM; in the experiment on NCI-H226 lung it was 0.462 µM; in the experiment on SN12C renal, 3.9 µM; with HCT-116 colon, 0.494 µM; with SF-268 CNS, 5.64 µM. Besides, the GI50 in the experiment on TK-10 renal was over 100 µM; in the experiment with MCF7 breast it was 0.407 µM; in the experiment on OVCAR-4 ovarian, 6.65 µM; in the experiment with T-47D breast, 16.9 µM. In addition, the TGI was over 100 µM with SNB-75 CNS; 12 µM in the experiment on DU-145 prostate; 4.48 µM in the experiment on NCI-H226 lung; over 100 µM in the experiment with SN12C renal; over 100 µM in the experiment with HCT-116 colon; over 100 µM in the experiment on SF-268 CNS. The TGI in the experiment with TK-10 renal, in the experiment with MCF7 breast, in the experiment on OVCAR-4 ovarian and with T-47D breast was over 100 µM each time.

As to `O=C(/C=C\c1ccc([N+](=O)[O-])cc1)c1ccccc(=O)c1O`, the TGI with SNB-75 CNS was 4.75 µM; in the experiment with DU-145 prostate, 9.44 µM; in the experiment on NCI-H226 lung, 6.7 µM; in the experiment on SN12C renal it was over 100 µM; in the experiment on HCT-116 colon it was 2.35 µM; in the experiment on SF-268 CNS, 37.3 µM. For the same molecule, the TGI was determined as 8.91 µM with TK-10 renal, 2.64 µM in the experiment on MCF7 breast, 18.1 µM in the experiment with OVCAR-4 ovarian and 23.8 µM with T-47D breast.

For `COc1cc(/C=N/Nc2ncnc3c2cnn3-c2ccccc2)ccc1O`, the GI50 in the experiment on SNB-75 CNS is 1.1 µM; in the experiment with DU-145 prostate, over 19.6 µM; in the experiment on NCI-H226 lung, over 25 µM; with SN12C renal, over 25 µM; in the experiment with HCT-116 colon, 8.18 µM; with SF-268 CNS, over 18.4 µM. Also, the GI50 with TK-10 renal is over 19.2 µM; in the experiment on MCF7 breast, 6.54 µM; in the experiment with OVCAR-4 ovarian, 15.5 µM; in the experiment with T-47D breast, 7.64 µM. The TGI in the experiment on SNB-75 CNS is over 7.39 µM; in the experiment with DU-145 prostate, over 25 µM; with NCI-H226 lung, over 25 µM; with SN12C renal, over 25 µM; in the experiment on HCT-116 colon, over 25 µM; in the experiment on SF-268 CNS, over 25 µM. Further, the TGI in the experiment on TK-10 renal, in the experiment with MCF7 breast, in the experiment on OVCAR-4 ovarian and in the experiment with T-47D breast was over 25 µM in each case.

As to `Cc1cc2c(cc1Cl)S/C(=C/C(=O)O)C(Nc1ccc3ncsc3c1)=NS2(=O)=O`, the GI50 was over 100 µM in the experiment with SNB-75 CNS; 21.2 µM in the experiment on DU-145 prostate; 25.3 µM in the experiment with NCI-H226 lung; 16.5 µM in the experiment with SN12C renal; 9.93 µM with HCT-116 colon; over 23.9 µM with SF-268 CNS. Further, the GI50 is 17.9 µM in the experiment with TK-10 renal, 8.75 µM in the experiment with MCF7 breast, over 34.3 µM with OVCAR-4 ovarian and 22.1 µM in the experiment with T-47D breast. The TGI was over 100 µM in the experiment with SNB-75 CNS; over 97.3 µM with DU-145 prostate; over 65.3 µM in the experiment on NCI-H226 lung; over 64.8 µM with SN12C renal; over 42.9 µM in the experiment with HCT-116 colon; over 74.9 µM in the experiment with SF-268 CNS. For the same molecule, the TGI with TK-10 renal was 51.1 µM; in the experiment on MCF7 breast, over 92.5 µM; in the experiment on OVCAR-4 ovarian, over 54.5 µM; in the experiment with T-47D breast, over 54.8 µM.

With `Nc1nc([Se])c2ncn(C3OC(CO)C(O)C3O)c2n1` (stereo not given), the GI50 with SNB-75 CNS is over 100 µM; in the experiment on DU-145 prostate, 3.31 µM; with NCI-H226 lung, 9.29 µM; in the experiment with SN12C renal, 52.9 µM; with HCT-116 colon, 4 µM; in the experiment with SF-268 CNS it was 9.27 µM. Further, the GI50 was 7.55 µM in the experiment on TK-10 renal, 4.09 µM in the experiment on MCF7 breast, 27.4 µM in the experiment on OVCAR-4 ovarian and 28.8 µM in the experiment with T-47D breast. Further, the TGI with SNB-75 CNS, in the experiment on DU-145 prostate, in the experiment on NCI-H226 lung, with SN12C renal, in the experiment with HCT-116 colon and with SF-268 CNS was over 100 µM in each case. Further, the TGI with TK-10 renal, in the experiment on MCF7 breast, in the experiment with OVCAR-4 ovarian and in the experiment on T-47D breast was over 100 µM each time.

Take `CCOC(=O)c1cc2c(cc1Cl)SC(=Nc1ccccc1)N(S(=O)(=O)c1ccc(Cl)cc1)S2(=O)=O`: the GI50 in the experiment with SNB-75 CNS was 38.2 µM; in the experiment with DU-145 prostate it was 17.3 µM; in the experiment on NCI-H226 lung, 6.03 µM; with SN12C renal, 15.4 µM; in the experiment with HCT-116 colon it was 6.32 µM; in the experiment on SF-268 CNS it was 12.1 µM. Also, the GI50 was 16.8 µM in the experiment with TK-10 renal, 4.38 µM with MCF7 breast, 31.5 µM in the experiment on OVCAR-4 ovarian and 3.84 µM in the experiment with T-47D breast. Further, the TGI in the experiment on SNB-75 CNS is over 100 µM; with DU-145 prostate it was 31 µM; in the experiment on NCI-H226 lung, 28.2 µM; with SN12C renal, 33.2 µM; in the experiment on HCT-116 colon, 21.9 µM; in the experiment with SF-268 CNS, 32 µM. The TGI in the experiment with TK-10 renal was 32.3 µM; in the experiment on MCF7 breast it was 15.9 µM; with OVCAR-4 ovarian it was over 100 µM; in the experiment on T-47D breast it was 23.4 µM.

On to `O=C(Nc1ccccc1)Nc1ccc2cc3ccc(NC(=O)Nc4ccccc4)cc3nc2c1`, for which the GI50 was 1.97 µM with SNB-75 CNS; 2.41 µM in the experiment with DU-145 prostate; 1.71 µM in the experiment on NCI-H226 lung; 1.34 µM in the experiment with SN12C renal; 0.232 µM with HCT-116 colon; 1.68 µM in the experiment with SF-268 CNS. Besides, the GI50 in the experiment with TK-10 renal is 3.98 µM; in the experiment on MCF7 breast, 1.08 µM; in the experiment on OVCAR-4 ovarian it was 1.12 µM; in the experiment on T-47D breast, 1.53 µM. For the same molecule, the TGI in the experiment on SNB-75 CNS turned out to be 3.73 µM; with DU-145 prostate, 7.49 µM; in the experiment on NCI-H226 lung, 4.15 µM; with SN12C renal, 2.72 µM; with HCT-116 colon, 0.615 µM; in the experiment on SF-268 CNS, 3.54 µM. The TGI in the experiment with TK-10 renal came out at 9.12 µM; with MCF7 breast, 3.14 µM; with OVCAR-4 ovarian it was 2.42 µM; in the experiment on T-47D breast, 3.08 µM.
